Data set [1] in a line: Microsomal intrinsic clearance, human. The conditions noted are these: for CLint scaled at 1 µM: pooled liver microsomes, human microsomes; for Pred CLhep (h): scaled predicted hepatic clearance, human. The class given is in vitro ADME. As to the method: SUPPLEMENTAL DMPK METHODS
All in vitro DMPK screening assays were performed at Q2 Solutions, Inc. (Indianapolis,
IN, USA). Microsomal Intrinsic Clearance: Test compounds (1 µM) were incubated
with 1 mg/mL of pooled liver microsomes in phosphate buffer at 37 °C. Samples were
taken at 0, 5, 10, 15, 30 and 45 min and analyzed by LC-MS. Testosterone was used as
the positive control. Two replicates were obtained and average CLint values are reported. […]

In data set [2] the test system is L1 CSCs. The experiment in a line: 7-day CTG viability assay (GI50, cross-titrations, irradiation) in L1. The class given is cell-based, human. Conditions: for GI50: Homo sapiens; for log(GI50): L1 + RAD (2 Gy). The procedure: For GI50 determination, compounds were stamped in technical triplicate, while for synergy cross-titrations dose-response matrices were prepared in technical duplicate. Different CSC lines, grown in suspension as spheroids, were split with Accutase and seeded directly on top of the prestamped compounds (50 μL of NBMc and 700 cells/well). The outer 4 rows (A,B and O,P row IDs) and 4 columns (1,2 and 23,24 column IDs) were filled with 80 μL of PBS to minimize evaporation. Cells were incubated with compounds for 7 days at 37°C/5% CO2 prior to the addition of 25 μL/well Cell-Titer Glo (Promega) and luminescence quantification on a Revvity EnVision plate reader. […] For the cross-titrations of 2 compounds, synergy scores were calculated using the MuSyC webserver ([79]). […]
antagonist (p53 activator) RG7112 following either 0 Gy or 2 Gy irradiation. Mean values are presented from a single biological replicate conducted in technical triplicate. Follow- […]
Cell viability was quantified as described in the Materials and Methods four days post-irradiation (seven days total). The

Data set [3] is described as follows: MDCK passive permeability. Conditions: dog, MDCK. The class given is in vitro ADME, canine.
For data set [4], the system named is L0 CSCs. The experiment in a line: 7-day CTG viability assay (GI50, cross-titrations) in L0. It is filed as cell-based. The conditions noted are these: Homo sapiens; L0, 7-day CTG; pGI50 = −log10[GI50(M)]. As to the method:
(§1) For GI50 determination, compounds were stamped in technical triplicate, while for synergy cross-titrations dose-response matrices were prepared in technical duplicate. Different CSC lines, grown in suspension as spheroids, were split with Accutase and seeded directly on top of the prestamped compounds (50 μL of NBMc and 700 cells/well). The outer 4 rows (A,B and O,P row IDs) and 4 columns (1,2 and 23,24 column IDs) were filled with 80 μL of PBS to minimize evaporation. Cells were incubated with compounds for 7 days at 37°C/5% CO2 prior to the addition of 25 μL/well Cell-Titer Glo (Promega) and luminescence quantification on a Revvity EnVision plate reader. […] For the cross-titrations of 2 compounds, synergy scores were calculated using the MuSyC webserver ([79]).

Data set [5] has as its system 5 different CSC models. Kind of data set: 7-day CTG viability / cross-titration, panel of 5 CSC models. The class given is cell-based, human. Conditions: Homo sapiens; 7-day assay, 5 CSC models. The procedure:
as §1

Data set [6] relates to WIN-site dependent transcripts. The experiment in a line: Bulk RNA-seq in L0 and DI318 CSCs. It is filed as cell-based, human. Conditions: for GSEA NES against MV4:11 C16-regulated gene set: 72 hours. As to the method:
Bulk RNA-seq was performed at MedGenome Inc. using the Illumina Stranded mRNA Library Prep Kit and sequencing at 20M paired-end read-depth on a NovaSeq 6000 (PE100). The raw bulk RNA-seq paired end (R1-R2, 2 × 100 bp) sequencing fastq data was first subjected to the quality check analysis using FastQC (v0.11.9). […] Further, quality filtered reads were subjected to the alignment employing Rsubread (v2.16.1) align function with human genome reference build GRCh38 ([90], [91]). The mapped binary alignment map (BAM) files were indexed using samtools (v1.16.1) ([92]), and gene-wise read counts were summarized applying featureCounts function from Rsubread, where inbuilt hg38 annotation was used and duplicated reads were ignored. Furthermore, gene symbols were obtained using org.Hs.eg.db (v3.15.0) annotation package operating on ENTREZIDs from count table. Respectively, edgeR (v3.38.4) and limma-voom (v3.52.4) packages were employed to accomplish differential transcriptional regulation analysis ([93]–[95]). Briefly, constructed DGEList object (DGEList function), design matrix (model.design), and contrast matrix (makeContrasts) was defined, filtered low counts (filterByExpr), and trimmed mean of M-values (TMM) normalization (calcNormFactors) was done. Later, log2 counts per million reads (logCPM) transformation, model fitting and differential expression analysis was performed using limma-voom (voomWithQualityWeights, lmFit, contrasts.fit), empirical Bayes moderated t-statistics (eBayes), and TREAT method (treat, decideTests, topTreat) considering log fold-change (logFC) (0.5) threshold. Genes with |log2FC| > 0.5 and FDR adjusted P value cutoff (≤0.01) were considered as differentially expressed genes (DEGs). Gene ontology (GO) and pathway enrichment analysis was accomplished implementing ShinyGO (v0.77) ([96]). DEGs volcano plots were depicted utilizing EnhancedVolcano (v1.16.0) package.

A short description of data set [7]: Plasma protein binding (equilibrium dialysis), human. The class given is in vitro ADME. The procedure: Plasma Protein and Brain Homogenate Binding: Plasma protein binding assays in human and rat plasma were performed using equilibrium dialysis method and a fast gradient elution LC-MS/MS to estimate the percent of compound which binds to protein over a 4.5 hour incubation period at 37 °C, while undergoing orbital shaking. Assay was performed using a HT dialysis micro equilibrium device using dialysis membrane strips. A time 0 sample was taken after protein matrix is created and samples were taken from […]
both the protein side and buffer side of the membrane after incubation and the parent compound was quantified. Brain homogenate binding was performed similarly as above using human brain homogenate, equilibrium dialysis, and LC-MS/MS methods. Fraction unbound is calculated by dividing the concentration of the buffer side by the concentration of the matrix side (plasma or brain). […]
(In general: Equilibrium dialysis compares concentrations on both sides of a semipermeable membrane.)

Data set [8] in a line: In situ brain perfusion. The class given is in vivo, mice. Conditions: 2-minute perfusion, 10 μM.
Description: To evaluate the permeability across the blood-brain barrier of WDR5 inhibitors in the absence of hepatic clearance, we utilized the in situ brain perfusion technique. Mice were anesthetized via i.p. injection of 100 mg/kg ketamine and 80 mg/kg xylazine. The peritoneal cavity was exposed, the descending aorta was clamped, and the right atrium was cut to prevent venous return to the heart. A 28G butterfly winged infusion catheter (Terumo Medical Care Solutions) was inserted into the left ventricle and mice were perfused with a modified physiological buffer containing 10 μM WDR5 inhibitor ([99]). […] To determine brain uptake of WDR5 inhibitors, mice were perfused for 120 seconds. The experiment was concluded by decapitation of the mouse. Following termination, the brain was rapidly removed and placed on ice. Inhibitor concentration in both brain and blood was determined by liquid chromatography tandem mass spectroscopy (Q2 Solutions). The unidirectional uptake transfer constant (Kin) was calculated by the following relationship ([100]):
Where Qbr is the concentration of WDR5 inhibitor in brain (ng/g) corrected for residual inhibitor remaining in cerebrovasculature at the end of the perfusion time frame, Cpf is the perfusion fluid concentration of WDR5 inhibitor (ng/mL), T is the time length of the perfusion experiment, and V0 is the vascular volume of the WDR5 inhibitor (mL/g).
Data set [9] can be described thus: Plasma protein binding (equilibrium dialysis), rat. The class given is in vitro ADME. The conditions noted are these: read-out: PPB % fu (r). As to the method: both the protein side and buffer side of the membrane after incubation and the parent
compound was quantified. […]

The mark [10] stands for this setting: L1, 0 Gy, read-out: log(GI50) (converted).
Setting [11] is: L1, 7-day CTG, pGI50 = −log10[GI50(M)], read-out: pGI50 (converted).
[12] abbreviates: human plasma, read-out: PPB % fu (h).
The mark [13] stands for this setting: summary of Table 1, read-out: free fraction.

The structures appear in SMILES notation. Like-named read-outs stand apart in the source and are kept apart here. Some results are limits rather than exact numbers.

On to `COc1cc(Cn2nnc3c2CCc2c(-c4cn(C)nc4C(F)(F)F)cc(Cn4ccnc4C)cc2-3)cc(OC)c1` [C3TD078], for which, in [1], the CLint scaled (usually a measure of how fast metabolising enzymes remove a compound, apart from limits set by blood flow) at 1 µM stood at 1200 mL/min/kg. Besides, in [1], the “Pred CLhep (h)” value is listed as 20.6 mL/min/kg. Besides, the GI50 was 5.01e-06 M in data set [2] (setting [10]), 5.01e-06 M in data set [2] (setting [11]), 1.26e-06 M in [4] and 1 to 5 µM in data set [5]. For the same compound, in [2], the “log(GI50)” value is on record as -5.3 M. Besides, the Papp A→B (commonly the apparent permeability from the apical to the basolateral side of a cell layer) in [3] was 4.9 ×10⁻⁶ cm/s; in [3] (favorable permeability) it was greater than 2 ×10⁻⁶ cm/s. Further, the “C16 DEGs also downregulated by C3TD078” value is reported as 79% in data set [6] (DI318, 200 nM, 72 hours (118/150)) and 89% in data set [6] (L0, 200 nM, 72 hours (91/102)). The fraction unbound at […] in [7] (setting [12]) was 0.016; in data set [7] (setting [13]), roughly 0.02.

Regarding `COc1cc(Cn2nnc3c2CCc2c-3cc(Cn3ccnc3C)cc2C2CC2)ccc1F` [C3TD343], in [1], the CLint scaled at 1 µM is 710 mL/min/kg. Moreover, the “Pred CLhep (h)” value in [1] was 20.3 mL/min/kg. The results for the GI50 in [2] (setting [10]), in data set [2] (setting [11]) and in data set [4] were 7.94e-06 M, 8.32e-06 M and 5.5e-06 M, respectively. Besides, the “log(GI50)” value in data set [2] is on record as -5.1 M. Besides, the figures for the Papp A→B in [3] and in data set [3] (favorable permeability) were 5.2 ×10⁻⁶ cm/s and greater than 2 ×10⁻⁶ cm/s, respectively. Besides, the “unidirectional brain uptake constant Kin” value in data set [8] is reported as > 50 × 10^–4 mL/s/g. The fraction unbound at […] in data set [9] was 0.027; in data set [7] (setting [12]) it was 0.007; in data set [7] (setting [13]) it was roughly 0.02.

Take `COc1cc(CN2CCc3c(cc(Cn4ccn(C)c4=N)cc3-c3ccc(F)cc3C)C2=O)cc(OC)c1` [C16, reference compound]: the CLint scaled at 1 µM in [1] amounted to 155 mL/min/kg. In addition, the “Pred CLhep (h)” value in data set [1] was 18.3 mL/min/kg. Further, the GI50 in [2] (setting [10]) was 1.26e-05 M; in data set [2] (setting [11]), 1.26e-05 M; in data set [4], 5.01e-07 M; in data set [5], 1 to 5 µM. The “log(GI50)” value in data set [2] is -4.9 M. Further, the Papp A→B in data set [3] was 0.1 ×10⁻⁶ cm/s. Moreover, the “unidirectional brain uptake constant Kin” value in data set [8] is on record as < 5 × 10^–4 mL/s/g. Also, the fraction unbound at […] in data set [9] was 0.008; in data set [7] (setting [12]) it was 0.003; in data set [7] (summary of Table 1, read-out: plasma protein binding), less than 0.01. For the same compound, the “GSEA NES against MV4:11 C16-regulated gene set” value is recorded as “–2.5” in [6] (DI318, 200 nM) and “–2.0” in [6] (L0, 200 nM).

The record behind these values is paper PMC13313556, “Development and characterization of triazole-based WDR5 inhibitors for the treatment of glioblastoma” (JCI Insight, 2026).
